Test results reported in US12622899B2 (PureTech LYT 100, Inc., priority 2018, dated 2026).
Values joined by “and” are separate entries in the source; they are usually repeats but may differ in a detail not shown here. Equal entries are not always repeated. Where two headings read alike, the source gives them in different places.

Key:
[1] = tested on: patients with Idiopathic Pulmonary Fibrosis (IPF); assay: IPF trial Part A: safety and tolerability (TEAEs, AESI, dose modifications, discontinuations); assay type: in vivo; conditions: 801 mg TID (N = 63)
Method: The primary objective was to determine the dose(s) to carry into Phase 3. […] Patients were randomized to one of the four treatments in a 1:1:1:1 ratio and stratified based on prior exposure to nintedanib (<6 months) versus nintedanib-naïve patients. Patients who completed the Double-blind Treatment Period (Part A) were offered participation in the Long-term Extension (Part B). […] For patients who participated in Part B, the follow-up was conducted at the end of Part B. A graphical illustration of an embodiment of the trial design is provided as FIG. 24B.
Safety endpoints included: Adverse events, concomitant medications, clinical laboratory findings (chemistry, hematology, urinalysis), physical examinations, ECGs, and vital signs. These will be summarized descriptively, where appropriate.
Tolerability endpoints included: Frequency of dose modifications (reductions and interruptions), time to first dose modification, (reduction or interruption), duration of adverse events of special interest, time to treatment discontinuation due to an adverse event of special interest and patient reported assessment of IPF symptoms, side-effects, severity, change and satisfaction.
In this study, AEs are reported for all patients from the time of consent until the completion of the Follow-up visit. AEs reported prior to the first dose are denoted as pre-treatment. SAEs are reported for all patients (randomized or not) from the time of consent. AEs reported from the time of consent to confinement on Day 0 were recorded as pre-treatment AEs.
Treatment emergent adverse events (TEAEs) are defined as an AE that occurs following first dose of study medication and were evaluated from the first administration of study drug on Day 1 until the Follow-up visit. […]
This study evaluated in particular the tolerability based on prioritized gastrointestinal adverse events (GI AEs). […]

[2] = study PIPF-005, 801 mg three times daily (2403 mg/day), healthy older subjects; cited from earlier work
[3] = tested on: older, healthy subjects; assay: Crossover study Part 2: safety and tolerability (TEAEs), fed and fasted; assay type: in vivo, human
Source text: Over-encapsulation was utilized to maintain study blind. […] Approximately 50 older healthy female and male adult subjects (1:1 ratio) were randomized into 1 of 2 cohorts:Cohort 1 or Cohort 2, N=˜25 subjects per cohort. Subjects in each cohort were randomized to treatment sequence as follows: • Sequence A: Pirfenidone to LYT-100 • Sequence B: LYT-100 to pirfenidone

[4] = tested on: patients with IPF; conditions: cited from earlier work; for patients with IPF progression (decline ≥10% in % FVC or death over 52 weeks): Nathan 2018
[5] = clinical; conditions: both sexes, human, in vivo, 550 mg
Method: Over-encapsulation was utilized to maintain study blind. […] Approximately 50 older healthy female and male adult subjects (1:1 ratio) were randomized into 1 of 2 cohorts:Cohort 1 or Cohort 2, N=˜25 subjects per cohort.
There was a single AM fasting dose on Day 4 for both drugs. There was a 6-day wash-out period between drug cross-over.
Subjects were discharged on Day 4 following successful completion of all assessments and at the Investigator's discretion.
Subjects were then administered a single dose of their randomized treatment on the morning of Day 14 following an overnight fast of at least 8 hours. Subjects were discharged on Day 14 following successful completion of all assessments and at the Investigator's discretion.
An evening snack was served ≥3 hours following evening study medication administration. On Day 4 (Treatment Period 1) and Day 14 (Treatment Period 2), subjects were administered their assigned study drug once in the morning following an overnight fast of at least 8 hours (with approximately 240 mL of non-carbonated water). No additional fluids were allowed during the 1 hour pre- and post-dose.
Blood samples for PK were collected for Cohorts 1 and 2 at specified times during both periods, as follows: • Days 1 & 11:0 (pre-morning dose) • Days 2 & 12: no sampling. • Days 3 & 13:0 (pre-morning dose), and 1, 2, 3, 4, 6 (pre-mid-day dose), 7, 8, 9, 10, 12 (pre-evening dose), 13, 14, 15, 16, and 17 hours post-morning dose • Days 4 & 14:0 (pre-morning dose), and 1, 2, 3, 4, 6 (post-dose),

[6] = tested on: patients with IPF; conditions: cited from earlier work
[7] = target: T1, CYP2C19 (Homo sapiens, UniProt P33261); assay: In vitro stability with recombinant human CYP2C19; assay type: in vitro ADME; conditions: recombinant human isozyme; read-out: t1/2 following incubation with CYP2C19 (converted)
T1 construct: host or cells: heterologous cell systems (not specified)
Method: (§1) The half-life (t½) of each test article was determined.

[8] = target: T2, CYP2D6 (Homo sapiens, UniProt P10635); assay: In vitro stability with recombinant human CYP2D6; assay type: in vitro ADME; conditions: recombinant human isozyme; read-out: t1/2 following incubation with CYP2D6 (converted)
T2 construct: host or cells: heterologous cell systems (not specified)
Method: as §1

[9] = target: T3, CYP1A2 (Homo sapiens, UniProt P05177); assay: In vitro stability with recombinant human CYP1A2; assay type: in vitro ADME; conditions: recombinant human isozyme; read-out: t1/2 following incubation with CYP1A2 (converted)
T3 construct: host or cells: heterologous cell systems (not specified)
T3 sequence (P05177 1-516): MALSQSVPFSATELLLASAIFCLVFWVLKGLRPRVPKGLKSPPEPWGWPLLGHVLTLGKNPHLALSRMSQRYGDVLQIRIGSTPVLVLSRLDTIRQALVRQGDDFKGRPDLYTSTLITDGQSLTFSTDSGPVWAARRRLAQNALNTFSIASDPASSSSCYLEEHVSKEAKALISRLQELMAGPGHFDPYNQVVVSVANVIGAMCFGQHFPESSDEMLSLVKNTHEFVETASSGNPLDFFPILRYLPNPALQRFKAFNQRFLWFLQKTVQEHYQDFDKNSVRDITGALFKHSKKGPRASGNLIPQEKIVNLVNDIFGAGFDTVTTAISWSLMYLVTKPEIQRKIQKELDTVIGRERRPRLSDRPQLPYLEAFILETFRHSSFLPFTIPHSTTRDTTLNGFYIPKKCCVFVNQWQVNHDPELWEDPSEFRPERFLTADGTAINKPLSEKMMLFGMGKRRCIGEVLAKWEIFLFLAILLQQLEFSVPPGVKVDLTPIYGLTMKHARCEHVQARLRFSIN
Method: as §1

[10] = tested on: patients with Idiopathic Pulmonary Fibrosis (IPF); assay: IPF trial Part A: clinical laboratory parameters, liver; assay type: in vivo, human; conditions: 801 mg TID (N = 63), N1 62
[11] = tested on: rat BLM induced lung fibrosis model; assay: Rat bleomycin induced lung fibrosis model, Phase II (efficacy); conditions: bleomycin rats, LYT-100 400 mg/kg QD / nintedanib 60 mg/kg BID
Method: For Groups 4, 5, 6, and 7, bleomycin and vehicle dosing were conducted as indicated in Table 28 (0.45 mg/kg, at 1696 IU/mg of Bleomycin or saline on Day 1, 2, 3, 6 and 7).

[12] = pooled phase 3 (Noble 2016), one year, vs placebo
[13] = observational study (Cottin 2018)

T2 sequence (P10635 whole entry): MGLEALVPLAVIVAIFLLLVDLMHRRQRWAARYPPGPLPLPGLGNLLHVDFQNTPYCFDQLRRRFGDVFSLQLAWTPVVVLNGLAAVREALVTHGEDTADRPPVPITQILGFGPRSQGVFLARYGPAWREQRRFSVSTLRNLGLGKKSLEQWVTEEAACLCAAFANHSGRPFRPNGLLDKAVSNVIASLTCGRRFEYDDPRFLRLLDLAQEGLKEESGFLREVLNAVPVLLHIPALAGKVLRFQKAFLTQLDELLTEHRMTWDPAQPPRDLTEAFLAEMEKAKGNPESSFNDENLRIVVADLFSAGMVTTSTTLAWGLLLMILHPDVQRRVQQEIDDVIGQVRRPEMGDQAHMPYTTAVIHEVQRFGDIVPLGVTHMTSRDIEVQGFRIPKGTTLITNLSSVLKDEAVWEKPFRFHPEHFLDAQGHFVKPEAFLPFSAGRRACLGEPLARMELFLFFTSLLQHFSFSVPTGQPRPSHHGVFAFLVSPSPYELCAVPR
T1 sequence (P33261 whole entry): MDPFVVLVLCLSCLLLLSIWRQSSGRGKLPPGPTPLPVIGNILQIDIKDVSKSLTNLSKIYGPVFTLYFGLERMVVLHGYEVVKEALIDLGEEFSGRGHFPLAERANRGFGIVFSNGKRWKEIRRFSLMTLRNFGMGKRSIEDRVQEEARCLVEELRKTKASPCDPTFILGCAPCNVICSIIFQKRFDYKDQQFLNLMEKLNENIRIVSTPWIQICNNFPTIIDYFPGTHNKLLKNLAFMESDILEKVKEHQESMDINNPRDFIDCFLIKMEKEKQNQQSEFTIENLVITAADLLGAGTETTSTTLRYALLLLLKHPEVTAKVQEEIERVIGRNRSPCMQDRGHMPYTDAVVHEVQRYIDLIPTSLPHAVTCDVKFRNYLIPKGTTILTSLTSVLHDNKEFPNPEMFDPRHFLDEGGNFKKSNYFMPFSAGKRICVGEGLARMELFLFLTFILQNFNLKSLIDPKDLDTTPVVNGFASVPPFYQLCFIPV

## Cc1ccc(=O)n(-c2ccccc2)c1 [Pirfenidone, pirfenidone, reference compound]
[1]
  Discontinued, Primary Reason: Death: 0 n (%)
[2]
  Cmax: 11850 ng/mL
[3]; Part 2
  deaths or serious AEs: No deaths or serious AEs
[3]; in vivo
  TEAEs leading to study discontinuation, subjects: one
[4]; <90% dose intensity
  patients with IPF progression (decline ≥10% in % FVC or death over 52 weeks): 21.6%
[4]; >90% dose intensity
  patients with IPF progression (decline ≥10% in % FVC or death over 52 weeks): 11.6%
[4]; pooled phase 3 (Nathan 2018)
  rate of permanent dose reductions: 31.5%
  rate of treatment discontinuation: 15.2%
[4]; pooled phase 3 (Noble 2016), 1 year, vs placebo
  reduction of risk of death or disease progression: 38%
[4]; pooled phase 3 (Noble 2016), 1 year
  FVC change, absolute difference vs placebo: 148 mL
[4]; [12]
  increase in proportion of patients with no decline in FVC % predicted: 59.3%
  reduction in proportion of patients with ≥10% decline in FVC % predicted or death: 43.8%
[4]; pooled phase 3 (Noble 2016), pirfenidone group
  mean change from baseline to 1 year in FVC: -216 mL
[5]; AUC0-24, parent
  AUC(0-t): 44100 ng·h/mL
[5]; Cmax, parent
  Cmax: 12700 ng/mL
[6]; [13]
  discontinuations due to adverse events associated with pirfenidone: 27.9%
  patients on a lower dose by two years: 13.8%
  patients who had discontinued treatment by two years: 64.9%
[6]; observational study of 1,009 IPF patients (Cottin 2018), FIG. 1B
  patients still on full dose (2,403 mg/day) by two years: 21.3% and 21%
[7]
  half-life: 2.13 h
[8]
  half-life: 2.3 h
[9]
  half-life: 3.18 h
[10]
  Alanine Aminotransferase (U/L) at Worst Post-Baseline, 3-5 ULN: 1 (1.6) n (%)
  Alanine Aminotransferase (U/L) at Worst Post-Baseline, 5-8 ULN: 0 n (%)
  Alanine Aminotransferase (U/L) at Worst Post-Baseline, >8 ULN: 0 n (%)
  Alanine Aminotransferase (U/L) at Worst Post-Baseline, Total (>3 ULN): 1 (1.6) n (%)
  Alanine Aminotransferase or Aspartate Aminotransferase (U/L) at Worst Post-Baseline, 3-5 ULN: 1 (1.6) n (%)
  Alanine Aminotransferase or Aspartate Aminotransferase (U/L) at Worst Post-Baseline, 5-8 ULN: 0 n (%)
  Alanine Aminotransferase or Aspartate Aminotransferase (U/L) at Worst Post-Baseline, >8 ULN: 0 n (%)
  Alanine Aminotransferase or Aspartate Aminotransferase (U/L) at Worst Post-Baseline, Total (>3 ULN): 1 (1.6) n (%)
  Aspartate Aminotransferase (U/L) at Worst Post-Baseline, 3-5 ULN: 0 n (%)
  Aspartate Aminotransferase (U/L) at Worst Post-Baseline, 5-8 ULN: 0 n (%)
  Aspartate Aminotransferase (U/L) at Worst Post-Baseline, >8 ULN: 0 n (%)
  Aspartate Aminotransferase (U/L) at Worst Post-Baseline, Total (>3 ULN): 0 n (%)

## COC(=O)c1ccc2c(c1)NC(=O)/C2=C(\Nc1ccc(N(C)C(=O)CN2CCN(C)CC2)cc1)c1ccccc1 [Nintedanib, nintedanib, reference compound]
[11]; Day 8-27
  hydroxyproline content (μg per mg of wet lung) vs bleomycin/vehicle: reduced hydroxyproline content
  lung fibrosis scores (histopathology) vs bleomycin/vehicle: did not affect the fibrosis scores
  lung sections with fibrosis Score 1: 37%
  lung sections with fibrosis Score 2: 33%
  lung weight ratio (% of body weight) vs bleomycin/vehicle: trend for lower lung weight ratios
  mean lung weight vs bleomycin/vehicle: reduced lung weight
  median lung fibrosis scores vs bleomycin/vehicle: reduced median fibrosis scores
  total left lung hydroxyproline (μg per left lung) vs bleomycin/vehicle: lower levels of total hydroxyproline
[11]; oral gavage Day 8-27
  body weight gain: showed modest improvement after Day 8 and the rate of body weight gain remained slower compared with the other groups
